These results are taken from PubChem BioAssay AID268 (DTP/NCI, 2004).

This experiment relates to CD2F1 mice, P1798 lymphosarcoma sc, tumor weight T/C. In words: NCI In Vivo Anticancer Drug Screen. Data for tumor model P1798 Lymphosarcoma (subcutaneous) in CD2F1 (CDF1) mice. The settings on record: endpoint: mean tumor weight, higher = larger tumour. Here is the method:
The antitumor activity of compounds was measured in mice bearing transplantable tumors. Survival or tumor size were measured and the results are expressed as the measurement made in the treated group (T) divided by the measurement made in the vehicle treated control group (C). The tumor model used in this assay is P1798 Lymphosarcoma (subcutaneous) in CD2F1 (CDF1) mice

Where [1] appears, read: dose: 10.0 mg/kg/injection, schedule: Q01DX010 (ip), vehicle: saline.
Setting [2] is: dose: 20.0 mg/kg/injection, schedule: Q01DX010 (ip), vehicle: saline.
The mark [3] stands for this setting: dose: 5.0 mg/kg/injection, schedule: Q01DX010 (ip), vehicle: saline.
Setting [4] is: dose: 12.5 mg/kg/injection, schedule: Q01DX010 (sc), vehicle: steriod suspending solution.
[5] abbreviates: dose: 50.0 mg/kg/injection, schedule: Q01DX010 (sc), vehicle: steriod suspending solution.
Setting [6] is: dose: 40.0 mg/kg/injection, schedule: Q01DX010 (ip), vehicle: saline.
Where [7] appears, read: dose: 50.0 mg/kg/injection, schedule: Q01DX010 (ip), vehicle: saline.
[8] abbreviates: dose: 100.0 mg/kg/injection, schedule: Q01DX010 (ip), vehicle: saline.
[9] abbreviates: dose: 200.0 mg/kg/injection, schedule: Q01DX010 (ip), vehicle: saline.
Setting [10] is: dose: 400.0 mg/kg/injection, schedule: Q01DX010 (ip), vehicle: saline.
Where [11] appears, read: dose: 6.25 mg/kg/injection, schedule: Q01DX010 (ip), vehicle: saline.
Where [12] appears, read: dose: 12.5 mg/kg/injection, schedule: Q01DX010 (ip), vehicle: saline.
Setting [13] is: dose: 25.0 mg/kg/injection, schedule: Q01DX010 (ip), vehicle: saline.
[14] abbreviates: dose: 1.25 mg/kg/injection, schedule: Q01DX010 (ip), vehicle: saline.
Setting [15] is: dose: 62.5 mg/kg/injection, schedule: Q01DX010 (ip), vehicle: saline.
[16] abbreviates: dose: 125.0 mg/kg/injection, schedule: Q01DX010 (ip), vehicle: saline.
[17] abbreviates: dose: 250.0 mg/kg/injection, schedule: Q01DX010 (ip), vehicle: saline.
The mark [18] stands for this setting: dose: 500.0 mg/kg/injection, schedule: Q01DX010 (ip), vehicle: saline.

Structures are written as SMILES. Where “and” joins values, the source holds several entries; their conditions need not be identical. Equal values may be shown once.

A word on the T/C: it is the ratio of treated to control. Turning to `CC(=O)NC1=C(N2CC2)C(=O)C(NC(C)=O)=C(N2CC2)C1=O`, the T/C runs as follows: (dose: 0.25 mg/kg/injection, schedule: Q01DX010 (ip), vehicle: saline) 86 % of control; (dose: 0.5 mg/kg/injection, schedule: Q01DX010 (ip), vehicle: saline) 45 % of control.
With `S=P(N1CCOCC1)(N1CC1)N1CC1`, the T/C is, setting by setting: under setting [1], 50 % of control and 75 % of control; under setting [2], 24 % of control.
In the case of `CCOC(=O)NP(=O)(N1CC1)N1CC1`, the T/C under setting [3] is 64 % of control and the T/C under setting [1] is 55 % of control.
`CC(=O)O[C@H]1CC[C@H]2[C@@H]3CC[C@H]4CCCC[C@]4(C)[C@H]3CC[C@]12C`: the T/C was 104 % of control and 121 % of control under setting [4]; 103 % of control and 85 % of control (dose: 25.0 mg/kg/injection, schedule: Q01DX010 (sc), vehicle: steriod suspending solution); 103 % of control under setting [5].
As for `Nc1ncnc2c1ncn2C1OC(COCc2ccccc2)C(OCc2ccccc2)C1OCc1ccccc1` (stereo unspecified), the T/C was 107 % of control and 115 % of control under setting [1]; 92 % of control and 109 % of control under setting [2]; 114 % of control and 89 % of control under setting [6]; 93 % of control and 104 % of control (dose: 80.0 mg/kg/injection, schedule: Q01DX010 (ip), vehicle: saline).
As for `O=C(NCCCCC(NC(=O)c1ccccc1)C(=O)NCCCCCCNCCCCCCNC(=O)C(CCCCNC(=O)c1ccccc1)NC(=O)c1ccccc1)c1ccccc1` (stereo unspecified), the T/C under setting [7] is 98 % of control, the T/C under setting [8] was 85 % of control, the T/C under setting [9] is 116 % of control and the T/C under setting [10] is 80 % of control.
On to `NCCCC(N)C(=O)NCCCCCCCCCCNC(=O)C(N)CCCN` (stereo unspecified), for which the T/C by setting is: under setting [11], 98 % of control; under setting [12], 86 % of control; under setting [13], 92 % of control; under setting [7], 65 % of control.
Take `N#CCSc1ncnc2nc[nH]c12`: the T/C was 87 % of control (dose: 7.5 mg/kg/injection, schedule: Q01DX010 (ip), vehicle: saline); 56 % of control (dose: 15.0 mg/kg/injection, schedule: Q01DX010 (ip), vehicle: saline); 97 % of control and 109 % of control (dose: 30.0 mg/kg/injection, schedule: Q01DX010 (ip), vehicle: saline); 97 % of control and 108 % of control (dose: 60.0 mg/kg/injection, schedule: Q01DX010 (ip), vehicle: saline).
Consider `COc1cc([C@@H]2c3cc4c(cc3[C@H](O)[C@H]3COC(=O)[C@H]23)OCO4)cc(OC)c1OC`, for which the T/C reads like this: (dose: 0.9 mg/kg/injection, schedule: Q01DX011 (ip), vehicle: carboxymethylcellulose (CMC)) 56 % of control; (dose: 1.7 mg/kg/injection, schedule: Q01DX011 (ip), vehicle: carboxymethylcellulose (CMC)) 111 % of control; (dose: 2.2 mg/kg/injection, schedule: Q01DX011 (ip), vehicle: carboxymethylcellulose (CMC)) 80 % of control.
Take `COc1cc(-c2ccc(Nc3ccccc3C(=O)O)c(OC)c2)ccc1Nc1ccccc1C(=O)O`: the T/C was 61 % of control under setting [12]; 53 % of control and 57 % of control under setting [13]; 12 % of control and 30 % of control under setting [7].
Turning to `COc1cc(C[C@H]2c3cc(OC)c(OC)cc3CCN2C)c(Oc2cc3c(cc2OC)-c2c(OC)c(OC)cc4c2[C@H](C3)N(C)CC4)cc1OC`, for the setting “dose: 50.0 mg/kg/injection, schedule: Q01DX011 (ip), vehicle: carboxymethylcellulose (CMC)”, the T/C was 13 % of control.
On to `Nc1nc(=S)c2[nH]cnc2[nH]1`, for which the T/C reads like this: (dose: 0.63 mg/kg/injection, schedule: Q01DX010 (ip), vehicle: saline) 74 % of control; under setting [14], 51 % of control and 72 % of control; (dose: 2.5 mg/kg/injection, schedule: Q01DX010 (ip), vehicle: saline) 44 % of control.
For the compound `C[C@@H]1C[C@@H]([C@H](O)CC2CC(=O)NC(=O)C2)C(=O)[C@@H](C)C1`, the T/C under setting [3] was 80 % of control and 81 % of control; the T/C under setting [1] is 99 % of control and 103 % of control; the T/C under setting [2] is 63 % of control and 75 % of control; the T/C under setting [6] was 43 % of control and 60 % of control.
`Cc1cn(C2OC(CO)C(O)C2O)c(=O)[nH]c1=O` (stereo unspecified): the T/C is, setting by setting: under setting [15], 97 % of control; under setting [8], 67 % of control; under setting [16], 96 % of control; under setting [9], 80 % of control; under setting [17], 72 % of control; under setting [10], 85 % of control. The T/C runs as follows: under setting [18], 69 % of control; (dose: 800.0 mg/kg/injection, schedule: Q01DX010 (ip), vehicle: saline) 75 % of control.
Regarding `C=C(C)C(=O)O[C@H]1CC2=C[C@@H](C[C@@]3(C)O[C@@H]3[C@H]3OC(=O)C(=C)[C@@H]31)OC2=O`, the T/C was 94 % of control (dose: 2.5 mg/kg/injection, schedule: Q01DX011 (sc), vehicle: saline); 73 % of control (dose: 5.0 mg/kg/injection, schedule: Q01DX011 (sc), vehicle: saline); 116 % of control (dose: 10.0 mg/kg/injection, schedule: Q01DX011 (sc), vehicle: saline).
`O=c1cnn(C2OC(CO)C(O)C2O)c(=O)[nH]1` (stereo unspecified): the T/C reads like this: under setting [7], 80 % of control; under setting [8], 73 % of control; under setting [9], 49 % of control; under setting [10], 17 % of control.
On to `CS(=O)(=O)OCCCl`, for which the T/C is 155 % of control (dose: 9.4 mg/kg/injection, schedule: Q01DX010 (ip), vehicle: saline); 171 % of control (dose: 18.8 mg/kg/injection, schedule: Q01DX010 (ip), vehicle: saline); 186 % of control (dose: 37.5 mg/kg/injection, schedule: Q01DX010 (ip), vehicle: saline); 86 % of control (dose: 75.0 mg/kg/injection, schedule: Q01DX010 (ip), vehicle: saline).
As to `O=CN(O)CC(=O)O`, the T/C was 92 % of control and 67 % of control under setting [15]; 104 % of control and 108 % of control under setting [17].
For `c1ccc(CNc2ncnc3[nH]ncc23)cc1`, the T/C by setting is: (dose: 16.0 mg/kg/injection, schedule: Q01DX010 (ip), vehicle: saline) 98 % of control; (dose: 32.0 mg/kg/injection, schedule: Q01DX010 (ip), vehicle: saline) 83 % of control; (dose: 64.0 mg/kg/injection, schedule: Q01DX010 (ip), vehicle: saline) 70 % of control.
Take `CC1(O)CCC2C3CCC4=CC(=O)CCC4C3CCC21C` (stereo unspecified): the T/C was 83 % of control (dose: 125.0 mg/kg/injection, schedule: Q01DX010 (sc), vehicle: steriod suspending solution); 81 % of control (dose: 250.0 mg/kg/injection, schedule: Q01DX010 (sc), vehicle: steriod suspending solution); 80 % of control (dose: 500.0 mg/kg/injection, schedule: Q01DX010 (sc), vehicle: steriod suspending solution); 67 % of control (dose: 1000.0 mg/kg/injection, schedule: Q01DX010 (sc), vehicle: steriod suspending solution).
For `C[C@]12CC[C@@H]3c4ccc(O)cc4CC[C@H]3[C@@H]1C[C@H](O)C2`, the T/C is 102 % of control (dose: 6.25 mg/kg/injection, schedule: Q01DX010 (sc), vehicle: steriod suspending solution); 95 % of control and 109 % of control under setting [4]; 111 % of control and 112 % of control under setting [5].
In the case of `COc1cc2c3c(c4ccc(OC)c(OC)c4c2cc1OC)CN1CCC[C@@H]1C3`, the T/C was 100 % of control and 78 % of control under setting [14]; 108 % of control and 87 % of control under setting [3]; 93 % of control and 104 % of control under setting [1].
With `O=c1ccc2ccccc2o1`, the T/C was 69 % of control (dose: 110.0 mg/kg/injection, schedule: Q01DX011 (ip), vehicle: carboxymethylcellulose (CMC)) and 54 % of control (dose: 165.0 mg/kg/injection, schedule: Q01DX011 (ip), vehicle: carboxymethylcellulose (CMC)).
Take `CCCNc1ncnc2[nH]ncc12`: the T/C is, setting by setting: under setting [11], 92 % of control and 95 % of control; under setting [12], 72 % of control; under setting [13], 25 % of control.
In the case of `CCCNc1ncnc2c1cnn2C`, the T/C by setting is: (dose: 3.13 mg/kg/injection, schedule: Q01DX010 (ip), vehicle: saline) 90 % of control; under setting [11], 103 % of control; under setting [12], 86 % of control.
Regarding `O=c1cn[nH]c(=O)[nH]1`, the T/C reads like this: under setting [15], 111 % of control and 89 % of control; under setting [16], 97 % of control; under setting [17], 62 % of control and 80 % of control; under setting [18], 80 % of control.
Consider `CCn1cnc2c(=S)nc[nH]c21`, for which, under setting [15], the T/C was 96 % of control and 79 % of control.
